Experimental data taken from article PMC8836179, “Transport Turnover Rates for Human OCT2 and MATE1 Expressed in Chinese Hamster Ovary Cells” (International Journal of Molecular Sciences, 2022).
Values joined by “and” are separate entries in the source; they are usually repeats but may differ in a detail not shown here. Equal values may be shown once.

Key:
hMATE1 = target: T1, hMATE1 (Homo sapiens, UniProt Q96FL8); test: MATE1-mediated substrate uptake kinetics and turnover rate in stably expressing CHO cells; assay type: in vitro ADME; details: for Kt (Ktapp, apparent Michaelis constant) / Jmax (maximum rate of mediated substrate transport): CHO cells stably expressing MATE1, 60-s uptakes, outwardly-directed H+ gradient (ammonia pulse), mean ± SD; for TOR (turnover rate): Jmax divided by cell surface MATE1 abundance (21.9 ± 18.1 fmol cm^−2), CHO cells
T1 construct: expressed in transfected cells; vector pcDNA5/FRT/V5-His TOPO
T1 sequence (Q96FL8 1-570): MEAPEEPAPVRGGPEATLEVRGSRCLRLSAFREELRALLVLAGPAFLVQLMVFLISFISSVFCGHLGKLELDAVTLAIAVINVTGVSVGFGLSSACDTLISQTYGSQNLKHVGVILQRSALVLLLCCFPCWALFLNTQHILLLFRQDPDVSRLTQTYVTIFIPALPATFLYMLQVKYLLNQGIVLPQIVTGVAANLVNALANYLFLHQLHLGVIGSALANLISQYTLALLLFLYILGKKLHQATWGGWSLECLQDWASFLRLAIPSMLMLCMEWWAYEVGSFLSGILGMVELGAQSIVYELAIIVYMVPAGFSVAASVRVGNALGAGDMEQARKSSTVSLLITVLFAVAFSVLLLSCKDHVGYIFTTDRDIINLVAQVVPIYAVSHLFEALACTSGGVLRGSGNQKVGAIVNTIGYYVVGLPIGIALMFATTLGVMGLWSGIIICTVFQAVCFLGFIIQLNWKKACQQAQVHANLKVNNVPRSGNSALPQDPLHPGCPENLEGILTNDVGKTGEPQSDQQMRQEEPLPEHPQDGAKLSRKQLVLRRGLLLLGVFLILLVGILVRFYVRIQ
Description: (§1) The calculation of TOR values involved dividing the maximal rates of substrate transport (Jmax) by the number of cell-surface-expressed transporters (Table 1).
(§2) Chinese hamster ovary (CHO) cells with a single integrated Flp-In recombination site were obtained from Invitrogen (Carlsbad, CA, USA). […] Cells were passaged every 3–4 days and maintained at 37 °C in a humidified environment with 5% CO2. Continued expression of MATE1 and OCT2 in these cell lines was maintained using hygromycin (200 µg/mL; Invitrogen, Carlsbad, CA) selection pressure; continued expression of the Flp-In recombination site in wild-type (WT; non-transporter expressing) CHO cells was maintained using Zeocin (100 µg/mL; Invitrogen) selection pressure. When seeded into 96-well plates (Greiner; VWR Intl., Arlington Heights, IL, USA) for transport assays, cells were grown to confluence in antibiotic-free medium.
(§3) Cells were seeded in 96 well plates with 200 µL of cell media containing 550,000 cells/mL or 275,000 cells/mL, and experiments were performed 24 or 48 h later, respectively. To begin an experiment, media was aspirated and the wells were washed for three cycles over 12 s with 300 µL of room temperature (~23 °C) Waymouth Buffer (WB; 135 mM NaCl, 13 mM HEPES, 2.5 mM CaCl2·2H2O, 1.2 mM MgCl2, 0.8 mM MgSO4·7H2O, 5 mM KCl, and 28 mM D-glucose; pH 7.4) using an automatic microplate washer (Model 405, BioTek, Winooski, VT, USA). For studies of OCT2-mediated transport, uptake was initiated by addition of 60 µL of WB containing radiolabeled substrate and other compounds, as needed. For studies of MATE1-mediated transport, the cells (MATE1-expressing and control cells) were exposed to an ammonia pulse method that we previously used to elevate cytoplasmic [H^+] to a level (~6.0 pH; [61]) that effectively saturates the cytoplasmic face of the exchanger with H^+ [51]. Briefly, cells were preincubated for 20 min (room temp) in buffer containing 20 mM NH4Cl (the first step in establishing an outwardly-directed H^+ gradient; [60]). Plates were then placed in the automatic fluid aspirator/dispenser and rinsed/aspirated three times with room temperature WB (pH 7.4), and transport was initiated by aspirating this medium and replacing it with 60 µL of an NH4Cl-free medium containing labeled substrate, thereby, establishing a trans H^+ gradient, qualitatively similar to the conditions that support MATE1-mediated transport in renal proximal tubules. For all experiments, transport buffers were added using a VIAFLO 96-well multichannel pipet (Integra Biosciences, Hudson, NH, USA). At specified time intervals, transport was terminated by rinsing with three cycles of cold WB (300 µL). Following rinsing and final aspiration, 200 µL of scintillation cocktail (Microscint 20, Perkin-Elmer, Waltham, MA, USA) was added to each well. The plates were sealed (Topseal-A, Perkin Elmer), and after sitting for at least two hours, accumulated radioactivity was determined in a six-channel multiwell scintillation counter (Wallac Trilux 1450 Microbeta, Perkin-Elmer).
(§4) The method described here is a minor modification of that described by Pelis et al..

hOCT2 = target: T2, hOCT2 (Homo sapiens, UniProt O15244); test: OCT2-mediated substrate uptake kinetics and turnover rate in stably expressing CHO cells; assay type: in vitro ADME; details: for Jmax (maximum rate of mediated substrate transport) / Kt (Ktapp, apparent Michaelis constant): CHO cells stably expressing OCT2, 60-s uptakes, pH 7.4, mean ± SD; for TOR (turnover rate): Jmax divided by cell surface OCT2 abundance (154 ± 70.7 fmol cm^−2), CHO cells
T2 construct: expressed in transfected cells; vector pcDNA5/FRT/V5-His TOPO
T2 sequence (O15244 1-555): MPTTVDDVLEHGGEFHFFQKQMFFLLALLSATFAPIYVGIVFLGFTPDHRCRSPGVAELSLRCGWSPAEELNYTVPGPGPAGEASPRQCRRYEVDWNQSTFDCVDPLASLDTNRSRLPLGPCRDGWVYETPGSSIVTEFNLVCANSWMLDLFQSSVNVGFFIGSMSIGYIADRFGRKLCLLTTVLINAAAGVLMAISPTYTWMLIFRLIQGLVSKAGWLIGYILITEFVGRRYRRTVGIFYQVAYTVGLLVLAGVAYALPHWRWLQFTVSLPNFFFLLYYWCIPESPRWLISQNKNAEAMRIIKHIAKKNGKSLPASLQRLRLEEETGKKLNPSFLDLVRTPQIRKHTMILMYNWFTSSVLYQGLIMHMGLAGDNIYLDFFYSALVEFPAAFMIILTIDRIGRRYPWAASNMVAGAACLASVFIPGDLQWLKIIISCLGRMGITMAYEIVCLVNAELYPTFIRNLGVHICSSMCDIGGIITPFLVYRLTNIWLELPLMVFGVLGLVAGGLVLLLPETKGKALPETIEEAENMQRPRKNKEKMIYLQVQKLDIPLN
Description: as §1, §2, §3, §4

Compound | Kt (Ktapp, apparent Michaelis constant) (hMATE1) | Kt (Ktapp, apparent Michaelis constant) (hMATE1; listed as atenolol) | Jmax (maximum rate of mediated substrate transport) (hOCT2) | Kt (Ktapp, apparent Michaelis constant) (hOCT2) | Jmax (maximum rate of mediated substrate transport) (hOCT2; listed as metformin) | Kt (Ktapp, apparent Michaelis constant) (hOCT2; listed as metformin) | TOR (turnover rate) (hOCT2) | Jmax (maximum rate of mediated substrate transport) (hMATE1) | Jmax (maximum rate of mediated substrate transport) (hMATE1; listed as metformin) | TOR (turnover rate) (hMATE1) | TOR (turnover rate) (hMATE1; listed as metformin)
CC(C)NCC(O)COc1ccc(CC(N)=O)cc1 (stereo not drawn) [Atenolol, atenolol] | 354 ± 96 µM and 354 ± 95.9 µM | 354 ± 96 µM |  |  |  |  |  |  |  |  | 
CN(C)C(=N)N=C(N)N [Metformin, metformin] | 664 ± 302 µM |  | 509 ± 39 pmol cm^−2 min^−1 and 509 ± 39.0 (n = 2) pmol cm^−2 min^−1 | 427 ± 48 µM and 427 ± 48.0 µM | 509 ± 39 pmol cm^−2 min^−1 and 509 pmol cm^−2 min^−1 | 427 ± 48 µM | 70 s⁻¹ | 1802 ± 1147 pmol cm^−2 min^−1 and 1802 ± 1147 (n = 4) pmol cm^−2 min^−1 | 1802 ± 1147 pmol cm^−2 min^−1 | 1894 ± 1282 s⁻¹ | ~ 1900 s^−1
C[n+]1ccc(-c2ccccc2)cc1 [MPP, 1-Methyl-4-phenylpyridinium] | 66 ± 6.8 µM |  | 59 ± 6.6 pmol cm^−2 min^−1 and 58.5 ± 6.6 pmol cm^−2 min^−1 and 58 pmol cm^−2 min^−1 and 58.5 ± 6.6 (n = 3) pmol cm^−2 min^−1 | 17.5 ± 2.1 µM |  |  | 7.1 ± 2.4 s⁻¹ | 241 ± 85 pmol cm^−2 min^−1 and 241 ± 84.9 (n = 4) pmol cm^−2 min^−1 |  | 297 ± 201 s⁻¹ | 
